Read-outs that look alike come from different tables or passages of the source. Values belong to the compound of their own block, whether it stands above or below them.
What was measured:
[1] = test system: HT-29 cells; assay: HT-29 necroptosis assay; assay type: cell-based, human; settings: TNF-α + AT-406 + zVAD-FMK, 16–20 h, read-out: HT29-Necroptosis (IC50) (converted)
Description: The efficacies of RIP1 inhibitors were tested in vitro using HT-29 cells and L929 cells in a necroptosis assay. For HT-29 necroptosis assay, frozen HT-29 cells were thawed and diluted to 1.5 × 10^5 cells ml^−1 in McCoy’s 5 A Medium (16600108, Invitrogen) supplemented with 10% FBS, 100 U ml^−1 penicillin, and 100 μg ml^−1 streptomycin. A 20 μl aliquot of cell suspension was added to each well of a 384-assay plate and the cell culture plates were incubated for 16–20 h at 37 °C, 5% CO2. After overnight incubation, 2.5 μl of inhibitor dissolved in culture medium was added to each well of the cell plates, and then each well was treated with 2.5 μl of necroptosis inducer containing […], AT-406, and zVAD-FMK solution at final concentrations of 200 ng ml^−1, 10 μM, and 200 μM, respectively. Lidded plates were incubated for 16–20 h at 37 °C, 5% CO2. The next day, the supernatant of culture medium in each well was evaluated with CytoTox 96 Non-Radioactive Cytotoxicity Assay (G1780, Promega) according to the manufacturer’s instructions. The absorbance of the test plate was measured by 2103 EnVision Multilabel plate reader.
A, no necroptosis inducer; B, necroptosis inducer; X, necroptosis inducer plus test inhibitor. IC50 values were calculated with XLfit software (IDBS) using a four-parameter logistic curve.

[2] = test system: L929 cells; assay: L929 necroptosis assay; assay type: cell-based; settings: mouse TNFα + Z-VAD-FMK, 4 h
[3] = test system: phospho (Ser-345)-MLKL; assay: Mouse phospho (Ser-345)-MLKL ELISA assay in L929 cells; assay type: cell-based; settings: read-out: L929-pMLKL (IC50)
[4] = test system: MLKL phosphorylation (p-MLKL); assay: Immunoblot of MLKL phosphorylation in isolated CD11b+Ly-6G- monocytes; assay type: cell-based, mouse; settings: isolated CD11b+Ly-6G- monocyte cells
Description: reaction. […] An excitation filter of
Inhibition rate was ex pressed as percent
(%) inhibition of internal assay controls. Percentage inhibition was calculated from the signal […]
For concentration response
(IDBS) using a four-parameter logistic curve. The value of Ki (the inhibitory constant) was […]
In vitro and ex vivo whole blood necroptosis assay. For the isolation of mouse monoc yte […]
density centrifugation over Ficoll-Paque Plus (GE Healthcare). Then, CD11b+/ Ly -6G- […]
manufacturer ’s recommendation. […]
treatment (no stimulation, TSZ stimulation with DMSO control, and TSZ stimulation with […] Nec- 1). As a result, the monocyte and neutrophil fraction was decreased, in which fractions onl y the monocyte fraction was restored by the treatment of RIPK1 inhibitor. (b) Monocyte cell number was counted as CD11b+/Ly-6G- population by FACS staining for further confirmation, since CD11b+ fraction contains Ly-6G+ neutrophil population. The left-hand graph indicates the CD11b+Ly-6G- monocyt e population which was calculated from flow c ytometr y analysis. Representative plots are indicated in the right- hand panels in which CD11b+/ Ly-6G- population are shown as blue dots. Significant reduction in monocyte […]
25 treatment. (c) C D 1 1 b + Ly -6G- monoc yte cells were isolated as des cribed in Supplementary Fi g. 4b and anal ysed b y i mmunoblotting using the indicated antibodies. […]

[5] = test system: CD11b+/Ly-6G- monocytes in mouse whole blood; assay: In vitro whole blood necroptosis assay (monocyte cell death); assay type: cell-based; settings: for restoration of monocyte number/fraction after TSZ stimulation: FACS
[6] = target: T1, human RIPK1 (Homo sapiens, UniProt Q13546); assay: CETSA (Tagg curves and ITDRF) for human RIPK1 with HT-29 cells; assay type: cell-based; settings: compound 30 min, 47 °C for 8 min denature, independent runs reported, read-out: human_ITDRF-CETSA (EC50)
T1 construct: ITDRF values of half-maximal stabilization of endogenous RIPK1; endogenous in cells; host or cells: HT-29
T1 sequence (Q13546 1-671): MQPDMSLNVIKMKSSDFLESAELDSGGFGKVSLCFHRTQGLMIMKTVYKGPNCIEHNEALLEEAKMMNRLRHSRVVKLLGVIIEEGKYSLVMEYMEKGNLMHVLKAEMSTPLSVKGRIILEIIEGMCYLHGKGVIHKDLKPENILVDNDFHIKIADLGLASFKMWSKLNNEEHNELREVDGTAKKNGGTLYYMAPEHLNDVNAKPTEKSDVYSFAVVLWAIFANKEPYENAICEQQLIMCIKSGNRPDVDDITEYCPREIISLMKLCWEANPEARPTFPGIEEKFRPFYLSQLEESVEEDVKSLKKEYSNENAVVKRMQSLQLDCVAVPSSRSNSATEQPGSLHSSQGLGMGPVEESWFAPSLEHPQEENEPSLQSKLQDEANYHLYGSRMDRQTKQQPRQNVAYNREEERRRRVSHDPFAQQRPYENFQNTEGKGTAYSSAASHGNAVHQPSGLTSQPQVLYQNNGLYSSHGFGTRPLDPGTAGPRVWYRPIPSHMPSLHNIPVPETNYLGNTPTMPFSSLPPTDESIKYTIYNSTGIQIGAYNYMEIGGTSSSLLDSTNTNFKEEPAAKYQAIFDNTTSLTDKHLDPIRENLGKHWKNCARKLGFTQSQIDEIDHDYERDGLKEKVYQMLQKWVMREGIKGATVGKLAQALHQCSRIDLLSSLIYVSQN
Description: HT-29 and L929 cells were harvested and suspended with culture media containing 10% FBS to a cell density of 2 × 10^6 cells ml^−1. Mouse peripheral blood was collected from C57BL/6 J (female, 10-week-old, Charles River Japan) and PBMCs were isolated by density centrifugation over Lympholyte®-Mammal Cell Separation Media, Mammalian (CL5110, Cedarlane Laboratories) according to manual instructions. Briefly, approximately 500 μl of blood was carefully overlaid on 250 μl of the separation media so as not to disturb the layer. The samples were immediately spun at 800 g for 20 min at room temperature. After centrifugation, the buffy coat containing the PBMCs was collected with almost 350 μl of plasma to a cell density of approximately 1 × 10^6 cells ml^−1. […]
For the in-cell thermal aggregation curve experiments, the compound solution was mixed with 9-fold volume of the suspension of cells at approximately 2 × 10^6 cells ml^−1 and the cells were incubated for 30 min at 37 °C, 5% CO2. […] Both whole and supernatant samples were analysed by sodium dodecyl sulfate polyacrylamide gel electrophoresis (SDS-PAGE) followed by Western blotting.
For the ITDRF in cell experiments, compounds were serially diluted to generate dose response curves. […] The heat-treated samples were treated as for the sample preparation and analysed with Western blotting following the procedure described above. […]

SMILES: CN1C(=O)[C@@H](N2CCc3c(nn(Cc4ccccc4)c3Cl)C2=O)COc2ccccc21 [Compound 18, (3S)-3-(2-benzyl-3-chloro-7-oxo-2,4,5,7-tetrahydro-6H-pyrazolo[3,4-c]pyridin-6-yl)-5-methyl-2,3-dihydro-1,5-benzoxazepin-4(5H)-one]
IC50 [1]: 1.5 nM

IC50 [3]: 16 nM
SMILES: CNC(=O)c1ccc2c(c1)OC[C@H](N1CCc3c(nn(Cc4ccccc4)c3Cl)C1=O)C(=O)N2C [Compound 23]
IC50 [2]: 15 nM
IC50 ([1]; Homo sapiens): 1.8 nM

IC50 [3]: 66 nM
SMILES: CN1C(=O)[C@@H](N2CCc3cn(Cc4ccccc4F)nc3C2=O)COc2cc(C#N)ccc21 [Compound 25]
IC50 [2]: 140 nM
inhibition of TSZ-induced MLKL phosphorylation (p-MLKL) [4]: completely inhibited
IC50 ([1]; Homo sapiens): 8.2 nM
IC50 ([5]; TNF-α + AT-406 + zVAD-FMK, 16–20 h, monocyte population by FACS): 1200 nM
restoration of monocyte number/fraction after TSZ stimulation [5]: rescued

SMILES: Nc1ncnc2occ(-c3ccc(NC(=O)Nc4cc(C(F)(F)F)ccc4F)cc3)c12 [GSK-compound 27, reference compound]
IC50 ([1]; Homo sapiens): 300 nM

SMILES: CN1C(=O)C(Cc2c[nH]c3ccccc23)NC1=S (centres unmarked) [Nec-1, Necrostatin-1, reference compound]
EC50 [6]: 1100 nM
IC50 ([1]; Homo sapiens): 610 nM
restoration of monocyte number/fraction after TSZ stimulation [5]: restored

— article PMC5638916, “CETSA quantitatively verifies in vivo target engagement of novel RIPK1 inhibitors in various biospecimens” (Scientific Reports, 2017)
